Results: patent US9938335B2, “Glucagon and GLP-1 co-agonist compounds” (Eli Lilly and Company, priority 2015, dated 2018)
In brackets after ≈: the same amount, converted by molar mass. Like-named read-outs stand apart in the source and are kept apart here.

Assays:
DIO mice (C57BL/6) = assay: Effects on energy expenditure in DIO mice (indirect calorimetry); type: in vivo, mouse; conditions: for Cumulative Heat (Kcal/kg lean mass/3 day): test article 15 nmol/kg, semaglutide 60 nmol/kg sc every three days
Protocol: Seven to eight months old male DIO mice (C57BL/6) weighing 45-50 g are used in this study to assess the effect of compounds of the present invention on energy metabolism. Animals are individually housed in a temperature-controlled (24° C.) facility with a 12 hour light/dark cycle (lights on 22:00), and free access to food (TD95217)(Teklad) and water. After 2 weeks acclimation to the facility, mice are randomized to treatment groups (N=6/group) based on body weight so each group has similar starting mean body weight. Animals are placed in a PhenoMaster/LabMaster calorimeter (TSE Systems, Chesterfield, Mo.) for 8 days of acclimation.
Heat and […] (RER) are measured by indirect calorimetry as described using an open-circuit calorimetry system. RER is the ratio of the volume of CO2 produced (VCO2) to the volume of O2 consumed (VO2). Heat is calculated with lean body weight considered. The energy expenditure is kcal/kg/3 day and expressed as mean±SEM of 6 mice per group. Statistical significance is assessed by two-way ANOVA followed by Tukey's multiple comparison test.

rat GLP-1-R = target: T1, rat GLP-1-R (Rattus norvegicus, UniProt P32301); assay: Functional activation of the rat GLP-1-R in insulinoma cell line INS1 832-3 (cAMP); type: cell-based
T1 construct: stimulating cAMP production at the endogenous GLP-1 receptors; endogenous in cells; host or cells: INS1 832-3 rat insulinoma cells
T1 sequence (P32301 22-463): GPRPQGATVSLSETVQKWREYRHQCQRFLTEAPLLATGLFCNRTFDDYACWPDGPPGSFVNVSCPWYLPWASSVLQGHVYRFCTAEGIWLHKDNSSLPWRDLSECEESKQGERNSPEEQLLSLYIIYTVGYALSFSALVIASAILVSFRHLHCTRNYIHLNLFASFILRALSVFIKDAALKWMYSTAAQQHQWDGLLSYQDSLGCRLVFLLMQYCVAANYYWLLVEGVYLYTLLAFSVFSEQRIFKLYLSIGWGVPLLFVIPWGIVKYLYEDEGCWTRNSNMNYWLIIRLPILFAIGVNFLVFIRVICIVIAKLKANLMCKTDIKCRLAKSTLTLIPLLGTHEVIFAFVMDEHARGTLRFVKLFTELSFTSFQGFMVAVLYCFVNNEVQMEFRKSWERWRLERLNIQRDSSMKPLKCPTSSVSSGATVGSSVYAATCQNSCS
Protocol: Performance of the assay requires detachment of the cells from culture flasks using Enzyme Free Cell Stripper and pelleted by centrifugation at 1000 rpm for 5 minutes at room temperature. […] After 2 hours starvation, cells are treated with compound by adding 10 μl of 5× compound dilutions into the cell plates (n=2) and incubated in a 37° C., 5% CO2 incubator for 30 minutes.
cAMP concentration is measured using a HTRF cAMP assay kit (Cisbio): cAMP-d2 conjugate in cell lysis buffer (20 μl) followed by the antibody anti-cAMP-Eu^3+-Cryptate, also in cell lysis buffer (20 μl), is added to the cells of the plate.
The assay is performed with duplicated plates.

[1] = Solubility (RP-HPLC and HPLC-SEC, 1 week at 4° C.); type: physicochemical
Protocol: Solubility of compounds of the present invention is measured in an Agilent 1100 HPLC, an Agilent 1200 HPLC and a Nanodrop 2000. The following HPLC columns are used:
(a) RP-HPLC: Waters Symmetry Shield C18, 3.6 um, 4.6×100 mm
(b) HPLC-SEC: Tosoh Biosciences, TSK2000SWXL […]
All peptide concentrations are made at 10 mg/mL in the following:
(a) 10 mM Tris pH 8.0+3 mg/mL m-cresol
(b) 10 mM Tris pH 8.0+3 mg/mL m-cresol+150 mM NaCl
(c) 10 mM Tris pH 8.0+3 mg/mL m-cresol+0.02% Tween-20
5 mL of 10 mg/mL peptide dissolved in 10 mM Tris at pH 8.0 is concentrated to approximately 20 mg/mL using Amicon-ultra 3 kDa MWCO devices. The solution is filtered using Millivex 0.22 μM filters (PVDF membrane) and the final concentration is measured by the NanoDrop spectrometer. This stock solution is used to formulate to the final conditions stated above using 3× m-cresol, 10× NaCl, and 100× Tween-20 stock solutions. A 10 mg/mL PBS solution is also prepared by dissolving directly at 5 mg/mL and concentrating using Amicon-ultra 3 kDa MWCO devices.
Each solution is placed in a refrigerator at 4° C. for 1 week, with analysis by RP-HPLC to assess concentration and HPLC-SEC to assess HMW species formation. Analyses completed at T-0 week and T-1 week.
The solubility of Compounds 1-4 was measured essentially as described in this assay.

Human Gcg-R = target: T2, Human Gcg-R (Homo sapiens, UniProt P47871); assay: Functional hGcg-R assay (cAMP HTRF, HEK-293 clonal cell line); type: cell-based
T2 construct: expressed in transfected cells; host or cells: HEK-293 clonal cell line over-expressing the receptor
Protocol: After a 60 minute incubation at room temperature, the resulting increase in intracellular cAMP (adenosine 3′,5′-cyclic monophosphate) is quantitatively determined using the CisBio cAMP Dynamic 2 HTRF Assay Kit (62AM4PEJ). cAMP levels within the cell are detected by adding the cAMP-d2 conjugate in cell lysis buffer (20 μl) followed by the antibody anti-cAMP-Eu^3+-Cryptate, also in cell lysis buffer (20 μl).
A relative EC50 value and percent top (Emax) are derived by non-linear regression analysis using the percent maximal response vs. the concentration of peptide added, fitted to a four-parameter logistic equation (Genedata Screener®).
Means for EC50 are expressed as Geometric means±standard error of the mean (SEM) with the number of replicates (n) indicated in parenthesis. Means for Emax are expressed as the arithmetic mean±standard error. ND signifies that agonist activity was not detected.

[2] = Pharmacokinetics in cynomolgus monkeys; type: in vivo; conditions: Table 8: single SC 50 nmol/kg; for Cmax: read-out: Cmax
Protocol: The compounds are administered by a single intravenous or subcutaneous dose of 50 nmole/kg or 250 nmole/kg.
The plasma concentrations of compounds are determined by a LC/MS method. Briefly, a compound of the present invention is extracted from 100% monkey plasma (25 μl) using acetonitrile. Two distinct layers are formed upon centrifugation with the compound located in the liquid layer. An 80 μl aliquot of the supernatant was transferred to a 96-well plate, diluted with 150 μl of water and 25 μl of formic acid. The diluted sample (10 μl) was injected onto a Supelco Analytical Discovery BIO Wide Pore C5-3, 5 cm×1 mm, 3 um column. The column effluent is directed into a Thermo Q-Exactive mass spectrometer for detection and quantitation.

[3] = male, cynomolgus monkey, plasma, sc, 50 nmol/kg, individual animals
[4] = male, cynomolgus monkey, plasma, sc, 50 nmol/kg, mean

T2 sequence (P47871 26-477): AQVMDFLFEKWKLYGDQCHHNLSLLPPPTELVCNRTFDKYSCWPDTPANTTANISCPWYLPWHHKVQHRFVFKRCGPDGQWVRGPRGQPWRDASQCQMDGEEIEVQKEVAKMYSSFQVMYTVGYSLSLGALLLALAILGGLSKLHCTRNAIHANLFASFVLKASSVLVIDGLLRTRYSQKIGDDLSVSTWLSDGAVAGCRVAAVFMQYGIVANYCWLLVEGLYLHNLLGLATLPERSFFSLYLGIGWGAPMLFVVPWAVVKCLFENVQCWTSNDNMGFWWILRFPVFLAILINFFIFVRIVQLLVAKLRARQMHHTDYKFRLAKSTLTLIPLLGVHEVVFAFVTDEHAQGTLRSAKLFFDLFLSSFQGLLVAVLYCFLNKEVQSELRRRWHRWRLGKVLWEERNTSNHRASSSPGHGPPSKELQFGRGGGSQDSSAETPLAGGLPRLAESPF

## CC(C)C[C@H](NC(=O)[C@H](CC(C)C)NC(=O)[C@H](Cc1c[nH]c2ccccc12)NC(=O)[C@H](CCC(=O)O)NC(=O)[C@@H](NC(=O)[C@H](Cc1ccccc1)NC(=O)[C@H](CCC(=O)O)NC(=O)[C@H](CCCCNC(=O)COCCOCCNC(=O)COCCOCCNC(=O)CC[C@H](NC(=O)CCCCCCCCCCCCCCCCC(=O)O)C(=O)O)NC(=O)[C@H](C)NC(=O)[C@H](CCCCN)NC(=O)[C@H](CCCCN)NC(=O)[C@H](CCC(=O)O)NC(=O)[C@H](CC(=O)O)NC(=O)[C@H](CC(C)C)NC(=O)[C@H](Cc1ccc(O)cc1)NC(=O)[C@H](CCCCN)NC(=O)[C@H](CO)NC(=O)[C@H](Cc1ccc(O)cc1)NC(=O)[C@H](CC(=O)O)NC(=O)[C@H](CO)NC(=O)[C@@H](NC(=O)[C@H](Cc1ccccc1)NC(=O)[C@@H](NC(=O)CNC(=O)[C@H](CCC(N)=O)NC(=O)C(C)(C)NC(=O)[C@@H](N)Cc1c[nH]cn1)[C@@H](C)O)[C@@H](C)O)C(C)C)C(=O)N[C@@H](CCC(=O)O)C(=O)NCC(=O)NCC(=O)N1CCC[C@H]1C(=O)N[C@@H](CO)C(=O)N[C@@H](CO)C(=O)NCC(N)=O [Compound 1]
DIO mice (C57BL/6); DIO mice, chronic treatment
  metabolic rate: increased their metabolic rate starting from Week 2
DIO mice (C57BL/6); Day 1 to Day 4
  Cumulative Heat (Kcal/kg lean mass/3 day): 1749 ± 136 Kcal/kg lean mass/3 day
DIO mice (C57BL/6); Day 4 to Day 7
  Cumulative Heat (Kcal/kg lean mass/3 day): 1822 ± 173 Kcal/kg lean mass/3 day
DIO mice (C57BL/6); Day 7 to Day 10
  Cumulative Heat (Kcal/kg lean mass/3 day): 2349 ± 129 Kcal/kg lean mass/3 day
DIO mice (C57BL/6); Day 10 to Day 13
  Cumulative Heat (Kcal/kg lean mass/3 day): 2351 ± 144 Kcal/kg lean mass/3 day
Rat GLP-1-R; INS1 832-3 cells, cAMP, 30 minutes
  EC50: 26.1 nM
Rat GLP-1-R; INS1 832-3 cells, data not shown
  cAMP production: increased cAMP production in a dose-dependent manner
Rat GLP-1-R; INS1, percent of maximal response with native GLP-1 peptide at 300 nM
  Emax: 112%
[1]; 10 mM Tris pH 8.0 + 3 mg/mL m-cresol + 0.02% Tween-20, Tris pH 8 + 3 mg/mL m-cresol + 0.02% Tween-20
  solubility at 1 week: 10000 µg/mL
[1]; 10 mM Tris pH 8.0 + 3 mg/mL m-cresol + 150 mM NaCl, Tris pH 8 + 3 mg/mL m-cresol + 150 mm NaCl
  solubility at 1 week: 10000 µg/mL
[1]; 10 mM Tris pH 8.0 + 3 mg/mL m-cresol, Tris pH 8 + 3 mg/mL m-cresol
  solubility at 1 week: 10000 µg/mL
[1]; 1 week at 4° C.
  HMW species formation by SEC-HPLC: No observed HMW species formation by SEC-HPLC;
[1]; PBS pH 7.4, pH 7.4, read-out: solubility in PBS, pH 7.4
  solubility at 1 week: 10000 µg/mL (≈ 2210 µM)
[1]; after 1 week storage at 4° C.
  visible precipitation or phase separation: No visible precipitation or phase separation observed after 1 week
Human Gcg-R; HEK293
  Emax: 112 ± 3%
Human Gcg-R; cAMP, 60 minute incubation, 0.25% FBS, 0.05% BSA, geometric mean, read-out: Human Gcg-R EC50, nM ± SEM, (n)
  EC50: 7.21 ± 1.06 nM
[2]; individual animals
  AUC(0-inf): 21.672 µM·h
  CL/F: 2.31 mL/h/kg
  Cmax: 253 nM
[2]; male cynomolgus monkeys, individual animals
  T1/2: 47 h
[2]; [3]
  Tmax: 12 h
  Cmax: 236 nM
[2]; male, cynomolgus monkey, plasma, sc, 50 nmol/kg, individual animals, read-out: AUC0-inf
  AUC(0-inf): 24.9 µM·h
[2]; male, cynomolgus monkey, plasma, sc, 50 nmol/kg, individual animals, read-out: CL/F (converted)
  CL/F: 2.01 mL/h/kg
[2]; male, cynomolgus monkey, plasma, sc, 50 nmol/kg, male cynomolgus monkeys, individual animals
  half-life: 67 h
[2]; [4]
  Tmax: ~12 h
  half-life: 57 h
  Cmax: 244 nM
[2]; male, cynomolgus monkey, plasma, sc, 50 nmol/kg, mean, read-out: AUC0-inf
  AUC(0-inf): 23.3 µM·h
[2]; male, cynomolgus monkey, plasma, sc, 50 nmol/kg, mean, read-out: CL/F (converted)
  CL/F: 2.16 mL/h/kg
